Source: paper PMC2358886, “Evolution of pharmacologic specificity in the pregnane X receptor” (BMC Evolutionary Biology, 2008)
Read-outs that look alike come from different tables or passages of the source.

Columns and labels:
[1] = target: T1, zebrafish PXR (Danio rerio, UniProt A5WYG8)
T1 sequence (A5WYG8 144-430): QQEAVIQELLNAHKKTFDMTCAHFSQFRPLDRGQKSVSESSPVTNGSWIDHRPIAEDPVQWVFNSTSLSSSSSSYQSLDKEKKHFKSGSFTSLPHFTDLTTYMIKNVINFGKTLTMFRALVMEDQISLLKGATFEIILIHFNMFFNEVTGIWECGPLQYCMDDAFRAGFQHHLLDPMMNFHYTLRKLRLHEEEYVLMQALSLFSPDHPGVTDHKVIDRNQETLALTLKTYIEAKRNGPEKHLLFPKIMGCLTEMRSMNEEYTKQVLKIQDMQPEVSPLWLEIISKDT

[2] = system: HepG2 cells
[3] = target: T2, human PXR (Homo sapiens, UniProt O75469); settings: for hPXR Efficacy: human
T2 sequence (O75469 1-434): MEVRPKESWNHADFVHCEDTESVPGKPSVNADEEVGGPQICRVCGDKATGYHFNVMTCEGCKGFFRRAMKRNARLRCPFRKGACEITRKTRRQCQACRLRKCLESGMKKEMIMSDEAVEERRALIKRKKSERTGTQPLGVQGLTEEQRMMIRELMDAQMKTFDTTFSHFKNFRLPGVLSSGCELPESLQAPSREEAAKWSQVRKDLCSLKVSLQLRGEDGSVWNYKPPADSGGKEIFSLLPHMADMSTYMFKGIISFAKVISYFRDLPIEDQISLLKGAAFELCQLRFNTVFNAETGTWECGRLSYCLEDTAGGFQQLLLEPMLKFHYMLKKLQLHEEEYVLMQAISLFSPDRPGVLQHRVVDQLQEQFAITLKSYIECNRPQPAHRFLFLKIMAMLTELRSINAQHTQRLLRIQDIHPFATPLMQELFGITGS

[4] = target: T1, zebrafish PXR; assay: cell-based
[5] = target: T2, human PXR; assay: PXR activation luciferase reporter assay, human PXR in HepG2-NTCP cells
[6] = target: T3, chicken PXR (Gallus gallus, UniProt Q9DFH3)
T3 sequence (Q9DFH3 1-391): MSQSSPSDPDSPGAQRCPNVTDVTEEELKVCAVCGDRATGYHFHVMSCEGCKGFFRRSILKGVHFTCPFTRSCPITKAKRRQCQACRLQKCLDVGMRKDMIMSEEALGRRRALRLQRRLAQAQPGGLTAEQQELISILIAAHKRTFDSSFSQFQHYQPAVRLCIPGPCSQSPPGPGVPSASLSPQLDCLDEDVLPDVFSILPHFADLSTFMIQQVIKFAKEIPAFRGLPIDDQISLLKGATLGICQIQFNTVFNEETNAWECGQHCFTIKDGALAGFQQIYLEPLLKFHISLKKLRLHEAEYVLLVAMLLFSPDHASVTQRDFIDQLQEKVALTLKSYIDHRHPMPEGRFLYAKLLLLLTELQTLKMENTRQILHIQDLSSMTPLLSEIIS

[7] = target: T4, rat PXR (Rattus norvegicus, UniProt Q9R1A7); settings: for Rat PXR Activity: -log(EC50), EC50 in molar units
T4 sequence (Q9R1A7 1-431): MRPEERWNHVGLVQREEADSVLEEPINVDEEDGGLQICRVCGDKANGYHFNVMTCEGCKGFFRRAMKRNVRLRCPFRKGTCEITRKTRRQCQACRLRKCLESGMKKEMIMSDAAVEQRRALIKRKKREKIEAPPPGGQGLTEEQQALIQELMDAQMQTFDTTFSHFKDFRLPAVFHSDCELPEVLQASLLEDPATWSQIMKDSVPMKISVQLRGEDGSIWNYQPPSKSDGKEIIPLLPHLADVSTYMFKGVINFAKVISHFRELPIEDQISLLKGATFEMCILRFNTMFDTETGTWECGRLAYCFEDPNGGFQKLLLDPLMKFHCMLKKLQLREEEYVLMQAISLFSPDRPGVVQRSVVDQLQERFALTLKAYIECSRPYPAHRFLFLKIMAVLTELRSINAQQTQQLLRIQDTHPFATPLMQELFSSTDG

[8] = target: T5, mouse PXR (Mus musculus, UniProt O54915); settings: for Mouse PXR Activity: -log(EC50), EC50 in molar units
T5 sequence (O54915 1-431): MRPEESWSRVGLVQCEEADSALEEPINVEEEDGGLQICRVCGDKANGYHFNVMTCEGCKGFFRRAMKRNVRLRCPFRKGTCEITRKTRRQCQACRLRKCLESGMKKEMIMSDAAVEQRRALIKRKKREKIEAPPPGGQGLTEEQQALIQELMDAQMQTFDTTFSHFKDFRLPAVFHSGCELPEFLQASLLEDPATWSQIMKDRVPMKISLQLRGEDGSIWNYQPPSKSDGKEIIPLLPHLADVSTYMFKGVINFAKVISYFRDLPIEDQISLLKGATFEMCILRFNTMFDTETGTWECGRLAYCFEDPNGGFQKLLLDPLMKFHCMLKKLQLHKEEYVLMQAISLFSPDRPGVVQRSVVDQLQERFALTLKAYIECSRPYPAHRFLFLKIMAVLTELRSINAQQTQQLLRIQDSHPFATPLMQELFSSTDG

[9] = system: HepG2 cells; assay: Toxicity assays in HepG2 cells (MTT and alamar blue reduction); settings: lowest concentration that produced significant toxicity in the HepG2 cells
[10] = relative to 20 μM 5α-androstan-3α-ol, assigned an efficacy of 1.0
[11] = zfPXR Activity, -log(EC50), EC50 in molar units, activation of zebrafish PXR
[12] = hPXR Activity, -log(EC50), EC50 in molar units, activation of human PXR
[13] = -log(EC50), EC50 in molar units
[14] = relative to 20 μM pregnenolone 16α-carbonitrile, assigned an efficacy of 1.0
[15] = -log(EC50), EC50 in molar units, activation of zebrafish PXR
[16] = -log(EC50), EC50 in molar units, activation of human PXR

## C[C@]12CCC(=O)C=C1CC[C@@H]1[C@@H]2CC[C@]2(C)C(=O)CC[C@@H]12 [AN7, 4-Androsten-3,17-dione]
[1]; [10]
  zfPXR Efficacy: 0.14
[2]
  Toxicity: None
[3]
  hPXR Efficacy: 0.59
[4]; Zebrafish PXR EC50 (concentration class, Figure 2B), class read from box colour, same key as Figure 2A
  EC50: < 10 µM
[4]; [11]
  EC50: 3.63 µM
[5]; Human PXR EC50 (concentration class, Figure 2A), class read from box colour against the key of Figure 2
  EC50: 11 to 50 µM
[5]; [12]
  EC50: 20.4 µM

## C[C@]12CC[C@@H](O)C[C@@H]1CC[C@@H]1[C@@H]2CC[C@]2(C)C=CC[C@@H]12 [AN10, 5α-Androst-16-en-3α-ol]
[1]; [10]
  zfPXR Efficacy: 1.02
[2]
  Toxicity: None
[4]
  EC50: 3.63 µM
[5]
  EC50: 5.5 µM

## C[C@@]12CCC[C@H]1[C@@H]1CC[C@H]3C[C@@H](O)CC[C@]3(C)[C@H]1CC2 [AN20, 5α-Androstan-3β-ol]
[1]; zebrafish
  zfPXR Efficacy: 1.66
[2]; human, 24 hr
  Toxicity: 50 µM
[3]
  hPXR Efficacy: 0.43
[4]
  EC50: 2.69 µM
[5]; [12]
  EC50: 0.794 µM

## C[C@@]12CCC[C@H]1[C@@H]1CC[C@@H]3C[C@H](O)CC[C@]3(C)[C@H]1CC2 [AN23, 5β-Androstan-3α-ol]
[1]; zebrafish
  zfPXR Efficacy: 0.33
[2]
  Toxicity: None
[3]
  hPXR Efficacy: 1.12
[4]
  EC50: 2.57 µM
[5]; [12]
  EC50: 1.41 µM

## C[C@@]12C=CC[C@H]1[C@@H]1CCC3=CC(=O)CC[C@]3(C)[C@H]1CC2 [AN24, Androst-4,16-dien-3-one]
[1]; zebrafish
  zfPXR Efficacy: 0.17
[2]; human, 24 hr
  Toxicity: 100 µM
[4]
  EC50: 1.1 µM
[5]
  EC50: 7.08 µM

## C[C@@]12C=CC[C@H]1[C@@H]1CC=C3C[C@@H](O)CC[C@]3(C)[C@H]1CC2 [AN25, Androst-5,16-dien-3β-ol]
[1]; zebrafish
  zfPXR Efficacy: 1.50
[2]; human, 24 hr
  Toxicity: 100 µM
[3]
  hPXR Activity: None
[4]
  EC50: 2.51 µM

## C[C@H](CCC(=O)NCCS(=O)(=O)O)[C@H]1CC[C@H]2[C@@H]3[C@H](O)C[C@@H]4C[C@H](O)CC[C@]4(C)[C@H]3CC[C@]12C [BI007, Taurochenodeoxycholic acid]
[6]; [13]
  Chicken PXR Activity: No effect

## CC(CCC(=O)O)C1CCC2C3C(O)C(O)C4CC(O)CCC4(C)C3CCC12C (stereo not drawn) [BI017, ω-Muricholic acid]
[7]
  Rat PXR Activity: No effect
[8]
  Mouse PXR Activity: No effect

## C[C@H](CCC(=O)O)[C@H]1CC[C@H]2[C@@H]3[C@H](O)[C@@H](O)[C@@H]4C[C@H](O)CC[C@]4(C)[C@H]3CC[C@]12C [BI018, α-Muricholic acid]
[7]
  Rat PXR Activity: 3.95
[7]; [14]
  Rat PXR efficacy, ε: 1.31
[8]
  Mouse PXR Activity: 4.59
[8]; [14]
  Mouse PXR efficacy, ε: 2.63

## C[C@H](CCC(=O)O)[C@H]1CC[C@H]2[C@@H]3[C@@H](O)[C@@H](O)[C@@H]4C[C@H](O)CC[C@]4(C)[C@H]3CC[C@]12C [BI019, β-Muricholic acid]
[7]
  Rat PXR Activity: No effect
[8]
  Mouse PXR Activity: No effect

## C[C@H](CCC(=O)NCC(=O)O)[C@H]1CC[C@H]2[C@@H]3[C@H](O)C[C@@H]4C[C@H](O)CC[C@]4(C)[C@H]3C[C@H](O)[C@]12C [BI021, Glycocholic acid]
[7]
  Rat PXR Activity: No effect
[8]
  Mouse PXR Activity: No effect
[6]
  Chicken PXR Activity: No effect

## C[C@H](CCC(=O)O)[C@H]1CC[C@H]2[C@@H]3[C@H](O)C[C@H]4C[C@H](O)CC[C@]4(C)[C@H]3C[C@H](O)[C@]12C [BI031, 5α-Cholanic acid-3α,7α,12α-triol]
[1]; [15]
  zfPXR Activity: None
[9]
  Toxicity: 200 µM
[5]; [16]
  hPXR Activity: None
[6]; [13]
  Chicken PXR Activity: No effect

## C[C@]12CC[C@@H]3c4cc(O)c(O)cc4CC[C@H]3[C@@H]1CCC2=O [ES7, 1,3,5(10)-Estratrien-2,3-diol-17-one]
[1]; zebrafish
  zfPXR Efficacy: 0.19
[2]
  Toxicity: None
[4]
  EC50: 1.82 µM
[5]
  EC50: 3.63 µM

## CCCCOC(=O)c1ccccc1 [MI5, Butylbenzoate]
[1]; [15]
  zfPXR Activity: None
[9]
  Toxicity: None
[3]
  hPXR Activity: None

## CC(C(=O)O)c1ccc(-c2ccccc2)c(F)c1 (stereo not drawn) [MI15, Flurbiprofen]
[1]; zebrafish
  zfPXR Efficacy: 0.53
[2]
  Toxicity: None
[3]
  hPXR Efficacy: 1.59
[4]
  EC50: 79.4 µM

## O=C(O)Cc1cccc(OCCCN(Cc2cccc(C(F)(F)F)c2Cl)CC(c2ccccc2)c2ccccc2)c1 [MI18, GW3965]
[1]
  zfPXR Activity: None
[9]
  Toxicity: 10 µM
[3]
  hPXR Activity: None

## NC(=O)N1c2ccccc2CC(=O)c2ccccc21 [MI23, Oxcarbazepine]
[1]; zebrafish
  zfPXR Efficacy: ~0.30
[2]; human, 24 hr
  Toxicity: 200 µM
[4]
  EC50: ~20 µM
[5]; [12]
  EC50: 18.2 µM

## CCCOC(=O)c1ccc(O)cc1 [MI27, n-Propyl-4-hydroxybenzoate]
[1]; zebrafish
  zfPXR Efficacy: 0.31
[2]; human, 24 hr
  Toxicity: 100 µM
[4]
  EC50: 52.5 µM
[5]; [12]
  EC50: 30.9 µM

## Cc1c(O)cc2c(c1C)O[C@](C)(CCC[C@H](C)CCC[C@H](C)CCCC(C)C)CC2 [MI40, γ-Tocopherol]
[1]; [15]
  zfPXR Activity: None
[9]
  Toxicity: 100 µM
[3]
  hPXR Activity: None

## CC(=O)[C@H]1[C@H](C#N)C[C@H]2[C@@H]3CC=C4C[C@@H](O)CC[C@]4(C)[C@H]3CC[C@@]21C [PR13, 5-Pregnen-16α-cyano-3β-ol-20-one]
[7]
  Rat PXR efficacy, ε: 6.20 (ε = 1.0)
  Rat PXR Activity: 6.20 (ε = 1.0)
[1]; [15]
  zfPXR Activity: None
[2]
  Toxicity: None
[8]
  Mouse PXR efficacy, ε: 6.41 (ε = 1.0)
  Mouse PXR Activity: 6.41 (ε = 1.0)
[5]; [16]
  hPXR Activity: None

## C#C[C@]1(O)CC[C@H]2[C@@H]3CCC4=CC(=O)CC[C@@H]4[C@H]3CC[C@@]21CC [PR27, 4-Estren-17α-ethynyl-18-homo-17β-ol-3-one]
[1]; [10]
  zfPXR Efficacy: 0.86
[2]
  Toxicity: None
[4]; [11]
  EC50: 1 µM
[5]; hPXR Activity
  EC50: 4.27 µM
